According to PubChem BioAssay (NCI):
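Interpolation was linear, between the two tested concentrations surrounding the appropriate level; five concentrations were tested over 48 hours in 96-well plates. GI50 marks 50% less growth. TGI: concentration producing complete growth inhibition.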

How the values were obtained:
Experiment in all cases: growth of human tumour cells (NCI), 48 h
786-0 renal = system: 786-0 renal
A549 NSCLC = system: A549 NSCLC
BT-549 breast = system: BT-549 breast
CAKI-1 renal = system: CAKI-1 renal
CCRF-CEM leukemia = system: CCRF-CEM leukemia
COLO 205 colon = system: COLO 205 colon
DU-145 prostate = system: DU-145 prostate
EKVX NSCLC = system: EKVX NSCLC
HCC-2998 colon = system: HCC-2998 colon
HCT-116 colon = system: HCT-116 colon
HCT-15 colon = system: HCT-15 colon
HL-60(TB) leukemia = system: HL-60(TB) leukemia
HOP-92 NSCLC = system: HOP-92 NSCLC
HT29 colon = system: HT29 colon
IGROV1 ovarian = system: IGROV1 ovarian
K-562 leukemia = system: K-562 leukemia
KM12 colon = system: KM12 colon
LOX IMVI melanoma = system: LOX IMVI melanoma
M14 melanoma = system: M14 melanoma
MCF7 breast = system: MCF7 breast
MDA-MB-231 breast = system: MDA-MB-231 breast
MDA-MB-435 = system: MDA-MB-435
MOLT-4 leukemia = system: MOLT-4 leukemia
NCI-H460 lung = system: NCI-H460 lung
NCI-H522 lung = system: NCI-H522 lung
NCI/ADR-RES ovarian = system: NCI/ADR-RES ovarian
OVCAR-3 ovarian = system: OVCAR-3 ovarian
OVCAR-4 ovarian = system: OVCAR-4 ovarian
OVCAR-5 ovarian = system: OVCAR-5 ovarian
OVCAR-8 ovarian = system: OVCAR-8 ovarian
PC-3 prostate = system: PC-3 prostate
RPMI-8226 leukemia = system: RPMI-8226 leukemia
RXF 393 renal = system: RXF 393 renal
SF-268 CNS = system: SF-268 CNS
SF-295 CNS = system: SF-295 CNS
SF-539 CNS = system: SF-539 CNS
SK-MEL-2 melanoma = system: SK-MEL-2 melanoma
SK-MEL-28 melanoma = system: SK-MEL-28 melanoma
SK-MEL-5 melanoma = system: SK-MEL-5 melanoma
SK-OV-3 ovarian = system: SK-OV-3 ovarian
SN12C renal = system: SN12C renal
SNB-19 CNS = system: SNB-19 CNS
SNB-75 CNS = system: SNB-75 CNS
SR leukemia = system: SR leukemia
SW-620 colon = system: SW-620 colon
T-47D breast = system: T-47D breast
TK-10 renal = system: TK-10 renal
U251 CNS = system: U251 CNS
UACC-257 melanoma = system: UACC-257 melanoma
UACC-62 melanoma = system: UACC-62 melanoma
UO-31 renal = system: UO-31 renal
A498 renal = system: A498 renal
ACHN renal = system: ACHN renal
HS 578T breast = system: HS 578T breast
MALME-3M melanoma = system: MALME-3M melanoma
NCI-H226 lung = system: NCI-H226 lung
NCI-H23 lung = system: NCI-H23 lung

CC(C)=CCC/C(C)=C/CC/C(=C/COP(=O)(OCc1ccc([N+](=O)[O-])o1)N(C)CCCCCl)CC=C(C)C (centres undefined)
GI50 (786-0 renal): 5.7 µM | TGI (786-0 renal): 19.2 µM | GI50 (A549 NSCLC): 8.66 µM | TGI (A549 NSCLC): 24.2 µM | GI50 (BT-549 breast): 2310 nM | TGI (BT-549 breast): 7 µM | GI50 (CAKI-1 renal): 4.06 µM | TGI (CAKI-1 renal): 19.7 µM | GI50 (CCRF-CEM leukemia): 6.16 µM | TGI (CCRF-CEM leukemia): > 100 µM | GI50 (COLO 205 colon): 8.01 µM | TGI (COLO 205 colon): 66.4 µM | GI50 (DU-145 prostate): 1940 nM | TGI (DU-145 prostate): 18.6 µM | GI50 (EKVX NSCLC): 3.73 µM | TGI (EKVX NSCLC): 19.8 µM | GI50 (HCC-2998 colon): 59.7 nM | TGI (HCC-2998 colon): 2450 nM | GI50 (HCT-116 colon): 2060 nM | TGI (HCT-116 colon): 7.97 µM | GI50 (HCT-15 colon): 2650 nM | TGI (HCT-15 colon): 12.5 µM | GI50 (HL-60(TB) leukemia): 4.81 µM | TGI (HL-60(TB) leukemia): > 100 µM | GI50 (HOP-92 NSCLC): 16.5 µM | TGI (HOP-92 NSCLC): 36 µM | GI50 (HT29 colon): 4.56 µM | TGI (HT29 colon): 33.6 µM | GI50 (IGROV1 ovarian): 3.39 µM | TGI (IGROV1 ovarian): 14.4 µM | GI50 (K-562 leukemia): 9.45 µM | TGI (K-562 leukemia): > 100 µM | GI50 (KM12 colon): 2980 nM | TGI (KM12 colon): 17.1 µM | GI50 (LOX IMVI melanoma): 2920 nM | TGI (LOX IMVI melanoma): 11.5 µM | GI50 (M14 melanoma): 2620 nM | TGI (M14 melanoma): 10.2 µM | GI50 (MCF7 breast): 1880 nM | TGI (MCF7 breast): 5.91 µM | GI50 (MDA-MB-231 breast): 8.58 µM | TGI (MDA-MB-231 breast): 22.8 µM | GI50 (MDA-MB-435): 4.98 µM | TGI (MDA-MB-435): 23.7 µM | GI50 (MOLT-4 leukemia): 4.14 µM | TGI (MOLT-4 leukemia): > 100 µM | GI50 (NCI-H460 lung): 3.75 µM | TGI (NCI-H460 lung): 11.8 µM | GI50 (NCI-H522 lung): 2040 nM | TGI (NCI-H522 lung): 7.47 µM | GI50 (NCI/ADR-RES ovarian): 6.11 µM | TGI (NCI/ADR-RES ovarian): 21.3 µM | GI50 (OVCAR-3 ovarian): 11.6 µM | TGI (OVCAR-3 ovarian): 29.4 µM | GI50 (OVCAR-4 ovarian): 11.9 µM | TGI (OVCAR-4 ovarian): 48.3 µM | GI50 (OVCAR-5 ovarian): 10.6 µM | TGI (OVCAR-5 ovarian): 24.3 µM | GI50 (OVCAR-8 ovarian): 3.04 µM | TGI (OVCAR-8 ovarian): 13.5 µM | GI50 (PC-3 prostate): 8.62 µM | TGI (PC-3 prostate): 24.3 µM | GI50 (RPMI-8226 leukemia): 3.56 µM | TGI (RPMI-8226 leukemia): > 100 µM | GI50 (RXF 393 renal): 6.03 µM | TGI (RXF 393 renal): 22.8 µM | GI50 (SF-268 CNS): 15.1 µM | TGI (SF-268 CNS): 29.9 µM | GI50 (SF-295 CNS): 7.14 µM | TGI (SF-295 CNS): 26 µM | GI50 (SF-539 CNS): 3.52 µM | TGI (SF-539 CNS): 11.9 µM | GI50 (SK-MEL-2 melanoma): 3.09 µM | TGI (SK-MEL-2 melanoma): 14.1 µM | GI50 (SK-MEL-28 melanoma): 19.6 µM | TGI (SK-MEL-28 melanoma): 43 µM | GI50 (SK-MEL-5 melanoma): 3.96 µM | TGI (SK-MEL-5 melanoma): 12.1 µM | GI50 (SK-OV-3 ovarian): 18.2 µM | TGI (SK-OV-3 ovarian): 55.8 µM | GI50 (SN12C renal): 2980 nM | TGI (SN12C renal): 12.3 µM | GI50 (SNB-19 CNS): 19.5 µM | TGI (SNB-19 CNS): 41.9 µM | GI50 (SNB-75 CNS): 12.1 µM | TGI (SNB-75 CNS): 36.8 µM | GI50 (SR leukemia): 3.02 µM | TGI (SR leukemia): > 100 µM | GI50 (SW-620 colon): 2920 nM | TGI (SW-620 colon): 6.98 µM | GI50 (T-47D breast): 38 µM | TGI (T-47D breast): > 100 µM | GI50 (TK-10 renal): 14.6 µM | TGI (TK-10 renal): 30.8 µM | GI50 (U251 CNS): 2780 nM | TGI (U251 CNS): 11.8 µM | GI50 (UACC-257 melanoma): 6.57 µM | TGI (UACC-257 melanoma): 22.5 µM | GI50 (UACC-62 melanoma): 14.3 µM | TGI (UACC-62 melanoma): 32.5 µM | GI50 (UO-31 renal): 5.56 µM | TGI (UO-31 renal): 18.2 µM

Cc1cc(NC(=O)C(=O)Cc2cnc3ccccc3n2)c(S(=O)(=O)O)cc1Cl
TGI (786-0 renal): > 100 µM | TGI (A498 renal): > 100 µM | TGI (A549 NSCLC): > 100 µM | TGI (ACHN renal): > 100 µM | TGI (BT-549 breast): > 100 µM | TGI (CAKI-1 renal): > 100 µM | TGI (CCRF-CEM leukemia): > 100 µM | TGI (COLO 205 colon): > 100 µM | TGI (DU-145 prostate): > 100 µM | TGI (EKVX NSCLC): > 100 µM | TGI (HCC-2998 colon): > 100000 nM | TGI (HCT-116 colon): > 100 µM | TGI (HCT-15 colon): > 100 µM | TGI (HL-60(TB) leukemia): > 100 µM | TGI (HOP-92 NSCLC): > 100 µM | TGI (HS 578T breast): > 100 µM | TGI (HT29 colon): > 100 µM | TGI (IGROV1 ovarian): > 100 µM | TGI (K-562 leukemia): > 100 µM | TGI (KM12 colon): > 100 µM | TGI (LOX IMVI melanoma): > 100 µM | TGI (M14 melanoma): > 100 µM | TGI (MALME-3M melanoma): > 100 µM | TGI (MCF7 breast): > 100 µM | TGI (MDA-MB-231 breast): > 100 µM | TGI (MDA-MB-435): > 100 µM | TGI (MOLT-4 leukemia): > 100 µM | TGI (NCI-H226 lung): > 100 µM | TGI (NCI-H23 lung): > 100 µM | TGI (NCI-H460 lung): > 100 µM | TGI (NCI-H522 lung): > 100 µM | TGI (NCI/ADR-RES ovarian): > 100 µM | TGI (OVCAR-3 ovarian): > 100 µM | TGI (OVCAR-4 ovarian): > 100 µM | TGI (OVCAR-5 ovarian): > 100 µM | TGI (OVCAR-8 ovarian): > 100 µM | TGI (PC-3 prostate): > 100 µM | TGI (RPMI-8226 leukemia): > 100 µM | TGI (SF-268 CNS): > 100 µM | TGI (SF-295 CNS): > 100 µM | TGI (SF-539 CNS): > 100 µM | TGI (SK-MEL-2 melanoma): > 100 µM | TGI (SK-MEL-28 melanoma): > 100 µM | TGI (SK-MEL-5 melanoma): > 100 µM | TGI (SK-OV-3 ovarian): > 100 µM | TGI (SN12C renal): > 100 µM | TGI (SNB-19 CNS): > 100 µM | TGI (SNB-75 CNS): > 100 µM | TGI (SW-620 colon): > 100 µM | TGI (T-47D breast): > 100 µM | TGI (TK-10 renal): > 100 µM | TGI (U251 CNS): > 100 µM | TGI (UACC-257 melanoma): > 100 µM | TGI (UACC-62 melanoma): > 100 µM | TGI (UO-31 renal): > 100 µM

CCCC1CCC(O)(C(C)(O)C(=O)NC2C(=O)N3NCCCC3C(=O)N(O)C(C)C(=O)N3NCCCC3C(=O)N3NCC(O)CC3C(=O)NC(C)C(=O)OC2C(C)C)OC1CC (centres undefined)
GI50 (NCI-H226 lung): > 25 µM | TGI (NCI-H226 lung): > 25 µM | GI50 (NCI-H522 lung): > 25000 nM | TGI (NCI-H522 lung): > 25 µM | TGI (NCI/ADR-RES ovarian): > 5.53 µM | GI50 (RXF 393 renal): > 25 µM | TGI (RXF 393 renal): > 25 µM
